{"source": "EPA's ToxValDB 9.5 (doi:10.2903/j.efsa.2006.75r)", "key": {"Aphidius rhopalosiphi [1]": {"test_system": "Aphidius rhopalosiphi", "test": "LR50; higher = less toxic", "conditions": "acute; duration: 48 hours; mortality"}, "Oncorhynchus mykiss": {"test_system": "Oncorhynchus mykiss", "conditions": "chronic/long-term; duration: 96 days; growth"}, "[2]": {"conditions": "chronic"}, "Apis mellifera": {"test_system": "Apis mellifera", "conditions": "acute, mortality"}, "Mus musculus": {"test_system": "Mus musculus", "conditions": "oral"}, "Canidae": {"test_system": "Canidae", "conditions": "short-term; duration: 28 days; oral; Dog Other; clinical chemistry"}, "Aphidius rhopalosiphi [3]": {"test_system": "Aphidius rhopalosiphi", "conditions": "chronic/long-term; reproduction"}, "Daphnia magna": {"test_system": "Daphnia magna", "conditions": "chronic/long-term; duration: 21 days; reproduction"}, "Coturnix japonica": {"test_system": "Coturnix japonica", "conditions": "acute; oral; diet; mortality"}, "Tagia sp.": {"test_system": "Tagia sp.", "conditions": "acute; mortality"}, "Lepomis macrochirus": {"test_system": "Lepomis macrochirus", "conditions": "acute; duration: 96 hours; mortality"}, "Rattus norvegicus": {"test_system": "Rattus norvegicus", "conditions": "for NOAEL: clinical chemistry"}}}
{"smiles": "COP(=S)(OC)SCN1C(=O)c2ccccc2C1=O", "note": "[Phosmet]", "values": [{"measurement": "LR50", "setting": "Aphidius rhopalosiphi [1]", "value": 1.95, "unit": "g/ha"}, {"measurement": "LD50", "setting": "Colinus virginianus; acute, oral, mortality", "value": 57, "unit": "mg/kg"}, {"measurement": "NOEC", "setting": "Colinus virginianus; reproduction developmental", "value": 7.5, "unit": "mg/kg-day"}, {"measurement": "NOEC", "setting": "Oncorhynchus mykiss", "value": 0.0032, "unit": "mg/L"}, {"measurement": "NOEC", "setting": "[2]", "value": 0.001, "unit": "mg/L"}, {"measurement": "LD50", "setting": "Apis mellifera; duration: 48 hours, dermal", "value": 0.22, "unit": "µg/piece"}, {"measurement": "LD50", "setting": "Apis mellifera; oral, unspecified", "value": 0.37, "unit": "µg/piece"}, {"measurement": "LOAEL", "setting": "Mus musculus; chronic, duration: 2 years, diet, neurology", "value": 1, "unit": "mg/kg-day"}, {"measurement": "NOAEL", "setting": "Mus musculus; short-term, duration: 28 days, clinical chemistry", "value": 2, "unit": "mg/kg-day"}, {"measurement": "NOAEL", "setting": "Canidae", "value": 2, "unit": "mg/kg-day"}, {"measurement": "LEL", "setting": "Aphidius rhopalosiphi [3]", "value": 1.41, "unit": "g/ha"}, {"measurement": "NOEC", "setting": "Daphnia magna", "value": 0.00078, "unit": "mg/L"}, {"measurement": "LC50", "setting": "Coturnix japonica", "value": 406, "unit": "mg/kg-day"}, {"measurement": "LC50", "setting": "Tagia sp.", "value": 104, "unit": "mg/kg"}, {"measurement": "LC50", "setting": "Lepomis macrochirus", "value": 0.0197, "unit": "µg/mL"}, {"measurement": "NOAEL", "setting": "Rattus norvegicus; acute", "value": 4.5, "unit": "mg/kg-day"}, {"measurement": "LD50", "setting": "Rattus norvegicus; acute, oral, mortality", "value": 113, "unit": "mg/kg"}, {"measurement": "NOAEC", "setting": "Rattus norvegicus; reproduction developmental", "value": 1.5, "unit": "mg/kg-day"}, {"measurement": "NOAEL", "setting": "Rattus norvegicus; subchronic, duration: 13 weeks", "value": 1.5, "unit": "mg/kg-day"}, {"measurement": "NOAEL", "setting": "Rattus norvegicus; subchronic, duration: 90 days, oral", "value": 2, "unit": "mg/kg-day"}]}
